Patent US20090299044A1 (priority 2006, published 2009)
Bridge positions count the residues as written; N and C are the ends. Square brackets hold non-standard residues; d marks the D form. Peptide text beside a SMILES is read from it. 1Nal = N[C@@H](Cc1cccc2ccccc12)C(=O)O

Columns and labels:
human Kv1.3 (CHO) = target: T1, human Kv1.3 (CHO) (Homo sapiens, UniProt P22001); assay: cell-based
T1 construct: expressed in transfected cells; host or cells: CHO

human Kv1.1 (HEK293) = target: T2, human Kv1.1 (HEK293) (Homo sapiens, UniProt Q09470); assay: cell-based
T2 construct: expressed in transfected cells; host or cells: HEK293
T2 sequence (Q09470 whole entry): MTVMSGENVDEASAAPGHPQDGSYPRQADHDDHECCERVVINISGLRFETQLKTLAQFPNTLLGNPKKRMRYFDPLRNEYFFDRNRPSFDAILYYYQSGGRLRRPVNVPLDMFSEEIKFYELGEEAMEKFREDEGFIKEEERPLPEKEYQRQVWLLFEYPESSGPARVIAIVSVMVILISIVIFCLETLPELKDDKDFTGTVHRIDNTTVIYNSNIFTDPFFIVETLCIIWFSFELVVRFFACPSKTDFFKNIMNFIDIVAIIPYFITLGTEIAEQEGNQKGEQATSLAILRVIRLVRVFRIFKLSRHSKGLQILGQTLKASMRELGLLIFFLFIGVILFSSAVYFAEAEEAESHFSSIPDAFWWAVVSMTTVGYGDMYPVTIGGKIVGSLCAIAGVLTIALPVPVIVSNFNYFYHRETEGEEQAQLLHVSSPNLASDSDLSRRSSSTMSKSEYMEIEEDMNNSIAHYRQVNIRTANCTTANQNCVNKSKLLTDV

T1 sequence (P22001 whole entry): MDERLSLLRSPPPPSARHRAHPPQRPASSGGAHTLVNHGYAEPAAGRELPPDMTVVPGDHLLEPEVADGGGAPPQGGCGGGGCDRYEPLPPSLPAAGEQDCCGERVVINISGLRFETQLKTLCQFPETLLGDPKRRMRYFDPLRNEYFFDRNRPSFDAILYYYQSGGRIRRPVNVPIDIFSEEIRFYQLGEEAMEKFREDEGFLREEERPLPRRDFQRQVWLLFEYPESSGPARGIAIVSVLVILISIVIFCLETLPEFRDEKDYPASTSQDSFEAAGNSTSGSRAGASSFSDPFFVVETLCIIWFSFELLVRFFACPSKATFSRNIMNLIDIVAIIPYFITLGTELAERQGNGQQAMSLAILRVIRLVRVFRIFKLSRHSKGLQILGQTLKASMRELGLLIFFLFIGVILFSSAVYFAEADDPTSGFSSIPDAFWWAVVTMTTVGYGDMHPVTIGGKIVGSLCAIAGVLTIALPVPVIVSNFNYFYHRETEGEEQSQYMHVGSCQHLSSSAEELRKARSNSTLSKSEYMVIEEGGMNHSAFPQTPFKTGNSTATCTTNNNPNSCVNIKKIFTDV

Structure (SMILES)	IC50 (human Kv1.3 (CHO)) [nM]	IC50 (human Kv1.1 (HEK293)) [nM]
CC[C@H](C)[C@@H]1NC(=O)[C@H](CCCCN)NC(=O)[C@@H](NC(=O)[C@H](CCC(=O)O)NC(=O)[C@@H](NC(=O)[C@H](CC(N)=O)NC(=O)[C@@H](NC(=O)[C@@H](NC(=O)[C@@H](NC(=O)CN)C(C)C)[C@@H](C)CC)[C@@H](C)CC)C(C)C)CSSC[C@@H]2NC(=O)[C@H](CCCCN)NC(=O)CNC(=O)[C@H](Cc3ccccc3)NC(=O)[C@H](CCCNC(=N)N)NC(=O)[C@H](CCSC)NC(=O)CNC(=O)[C@H](C)NC(=O)[C@H](CCCCN)NC(=O)[C@H](CCCCN)NC(=O)[C@@H]3CSSC[C@@H](C(=O)N[C@H](C(=O)N4CCC[C@H]4C(=O)N[C@@H](CCCCN)C(=O)O)[C@@H](C)O)NC(=O)[C@H](Cc4c[nH]cn4)NC(=O)[C@H](CSSC[C@H](NC(=O)[C@H](CCC(N)=O)NC(=O)[C@H](CCCNC(=N)N)NC(=O)[C@H](CO)NC1=O)C(=O)N[C@@H](CC(C)C)C(=O)N[C@@H](CCC(=O)O)C(=O)N1CCC[C@H]1C(=O)N3)NC(=O)[C@H](CCCCN)NC(=O)CNC(=O)[C@H](CC(N)=O)NC(=O)[C@H](CCSC)NC2=O [K7E] (H-GVIINVECKISRQCLEPCKKAGMRFGKCMNGKCHCTPK-OH; disulfide 8-28, 14-33, 18-35)	0.0142	< 0.00152
CC[C@H](C)[C@@H]1NC(=O)[C@H](CCCCN)NC(=O)[C@@H](NC(=O)[C@H](CCCCN)NC(=O)[C@@H](NC(=O)[C@H](CC(N)=O)NC(=O)[C@@H](NC(=O)[C@@H](NC(=O)[C@@H](NC(=O)CN)C(C)C)[C@@H](C)CC)[C@@H](C)CC)C(C)C)CSSC[C@@H]2NC(=O)[C@H](CCCCN)NC(=O)CNC(=O)[C@H](Cc3ccccc3)NC(=O)[C@H](CCCNC(=N)N)NC(=O)[C@H](CCSC)NC(=O)CNC(=O)[C@H](C)NC(=O)[C@H](CCCCN)NC(=O)[C@H](CCCCN)NC(=O)[C@@H]3CSSC[C@@H](C(=O)N[C@H](C(=O)N4CCC[C@H]4C(=O)N[C@@H](CCCCN)C(=O)O)[C@@H](C)O)NC(=O)[C@H](Cc4c[nH]cn4)NC(=O)[C@H](CSSC[C@H](NC(=O)[C@H](CCC(N)=O)NC(=O)[C@H](CCCNC(=N)N)NC(=O)[C@H](CO)NC1=O)C(=O)N[C@@H](Cc1cccc4ccccc14)C(=O)N[C@@H](CCC(=O)O)C(=O)N1CCC[C@H]1C(=O)N3)NC(=O)[C@H](CCCCN)NC(=O)CNC(=O)[C@H](CC(N)=O)NC(=O)[C@H](CCSC)NC2=O [L15Nal] (H-GVIINVKCKISRQC[1Nal]EPCKKAGMRFGKCMNGKCHCTPK-OH; disulfide 8-28, 14-33, 18-35)	0.0178	< 0.00152
CC[C@H](C)[C@@H]1NC(=O)[C@H](CCCCN)NC(=O)[C@@H](NC(=O)[C@H](C)NC(=O)[C@@H](NC(=O)[C@H](CC(N)=O)NC(=O)[C@@H](NC(=O)[C@@H](NC(=O)[C@@H](NC(=O)CN)C(C)C)[C@@H](C)CC)[C@@H](C)CC)C(C)C)CSSC[C@@H]2NC(=O)[C@H](CCCCN)NC(=O)CNC(=O)[C@H](Cc3ccccc3)NC(=O)[C@H](CCCNC(=N)N)NC(=O)[C@H](CCSC)NC(=O)CNC(=O)[C@H](C)NC(=O)[C@H](CCCCN)NC(=O)[C@H](CCCCN)NC(=O)[C@@H]3CSSC[C@@H](C(=O)N[C@H](C(=O)N4CCC[C@H]4C(=O)N[C@@H](CCCCN)C(=O)O)[C@@H](C)O)NC(=O)[C@H](Cc4c[nH]cn4)NC(=O)[C@H](CSSC[C@H](NC(=O)[C@H](CCC(N)=O)NC(=O)[C@H](CCCNC(=N)N)NC(=O)[C@H](CO)NC1=O)C(=O)N[C@@H](CC(C)C)C(=O)N[C@@H](CCC(=O)O)C(=O)N1CCC[C@H]1C(=O)N3)NC(=O)[C@H](CCCCN)NC(=O)CNC(=O)[C@H](CC(N)=O)NC(=O)[C@H](CCSC)NC2=O [K7A] (H-GVIINVACKISRQCLEPCKKAGMRFGKCMNGKCHCTPK-OH; disulfide 8-28, 14-33, 18-35)	0.181	0.0219
CC[C@H](C)[C@@H]1NC(=O)[C@H](CCCCN)NC(=O)[C@@H](NC(=O)[C@H](CCCCN)NC(=O)[C@@H](NC(=O)[C@H](CC(N)=O)NC(=O)[C@@H](NC(=O)[C@@H](NC(=O)[C@@H](NC(=O)CN)C(C)C)[C@@H](C)CC)[C@@H](C)CC)C(C)C)CSSC[C@@H]2NC(=O)[C@H](Cc3cccc4ccccc34)NC(=O)CNC(=O)[C@H](Cc3ccccc3)NC(=O)[C@H](CCCNC(=N)N)NC(=O)[C@H](CCSC)NC(=O)CNC(=O)[C@H](C)NC(=O)[C@H](CCCCN)NC(=O)[C@H](CCCCN)NC(=O)[C@@H]3CSSC[C@@H](C(=O)N[C@H](C(=O)N4CCC[C@H]4C(=O)N[C@@H](CCCCN)C(=O)O)[C@@H](C)O)NC(=O)[C@H](Cc4c[nH]cn4)NC(=O)[C@H](CSSC[C@H](NC(=O)[C@H](CCC(N)=O)NC(=O)[C@H](CCCNC(=N)N)NC(=O)[C@H](CO)NC1=O)C(=O)N[C@@H](CC(C)C)C(=O)N[C@@H](CCC(=O)O)C(=O)N1CCC[C@H]1C(=O)N3)NC(=O)[C@H](CCCCN)NC(=O)CNC(=O)[C@H](CC(N)=O)NC(=O)[C@H](CCSC)NC2=O [K27Nal] (H-GVIINVKCKISRQCLEPCKKAGMRFG[1Nal]CMNGKCHCTPK-OH; disulfide 8-28, 14-33, 18-35)	> 3.33	1.04
CC[C@H](C)[C@@H]1NC(=O)[C@H](CCCCN)NC(=O)[C@@H](NC(=O)[C@H](CCCCN)NC(=O)[C@@H](NC(=O)[C@H](C)NC(=O)[C@@H](NC(=O)[C@@H](NC(=O)[C@@H](NC(=O)CN)C(C)C)[C@@H](C)CC)[C@@H](C)CC)C(C)C)CSSC[C@@H]2NC(=O)[C@H](CCCCN)NC(=O)CNC(=O)[C@H](Cc3ccccc3)NC(=O)[C@H](CCCNC(=N)N)NC(=O)[C@H](CCSC)NC(=O)CNC(=O)[C@H](C)NC(=O)[C@H](CCCCN)NC(=O)[C@H](CCCCN)NC(=O)[C@@H]3CSSC[C@@H](C(=O)N[C@H](C(=O)N4CCC[C@H]4C(=O)N[C@@H](CCCCN)C(=O)O)[C@@H](C)O)NC(=O)[C@H](Cc4c[nH]cn4)NC(=O)[C@H](CSSC[C@H](NC(=O)[C@H](CCC(N)=O)NC(=O)[C@H](CCCNC(=N)N)NC(=O)[C@H](CO)NC1=O)C(=O)N[C@@H](CC(C)C)C(=O)N[C@@H](CCC(=O)O)C(=O)N1CCC[C@H]1C(=O)N3)NC(=O)[C@H](CCCCN)NC(=O)CNC(=O)[C@H](CC(N)=O)NC(=O)[C@H](CCSC)NC2=O [N5A] (H-GVIIAVKCKISRQCLEPCKKAGMRFGKCMNGKCHCTPK-OH; disulfide 8-28, 14-33, 18-35)	0.16	0.014
CC[C@H](C)[C@@H]1NC(=O)[C@H](CCCCN)NC(=O)[C@@H](NC(=O)[C@H](CCCCN)NC(=O)[C@@H](NC(=O)[C@H](CC(N)=O)NC(=O)[C@H](C)NC(=O)[C@@H](NC(=O)[C@@H](NC(=O)CN)C(C)C)[C@@H](C)CC)C(C)C)CSSC[C@@H]2NC(=O)[C@H](CCCCN)NC(=O)CNC(=O)[C@H](Cc3ccccc3)NC(=O)[C@H](CCCNC(=N)N)NC(=O)[C@H](CCSC)NC(=O)CNC(=O)[C@H](C)NC(=O)[C@H](CCCCN)NC(=O)[C@H](CCCCN)NC(=O)[C@@H]3CSSC[C@@H](C(=O)N[C@H](C(=O)N4CCC[C@H]4C(=O)N[C@@H](CCCCN)C(=O)O)[C@@H](C)O)NC(=O)[C@H](Cc4c[nH]cn4)NC(=O)[C@H](CSSC[C@H](NC(=O)[C@H](CCC(N)=O)NC(=O)[C@H](CCCNC(=N)N)NC(=O)[C@H](CO)NC1=O)C(=O)N[C@@H](CC(C)C)C(=O)N[C@@H](CCC(=O)O)C(=O)N1CCC[C@H]1C(=O)N3)NC(=O)[C@H](CCCCN)NC(=O)CNC(=O)[C@H](CC(N)=O)NC(=O)[C@H](CCSC)NC2=O [I4A] (H-GVIANVKCKISRQCLEPCKKAGMRFGKCMNGKCHCTPK-OH; disulfide 8-28, 14-33, 18-35)	0.195	0.0169
CC[C@H](C)[C@@H]1NC(=O)[C@H](CCCCN)NC(=O)[C@@H](NC(=O)[C@H](CCCCN)NC(=O)[C@@H](NC(=O)[C@H](CCCNC(=N)N)NC(=O)[C@@H](NC(=O)[C@@H](NC(=O)[C@@H](NC(=O)CN)C(C)C)[C@@H](C)CC)[C@@H](C)CC)C(C)C)CSSC[C@@H]2NC(=O)[C@H](CCCCN)NC(=O)CNC(=O)[C@H](Cc3ccccc3)NC(=O)[C@H](CCCNC(=N)N)NC(=O)[C@H](CCSC)NC(=O)CNC(=O)[C@H](C)NC(=O)[C@H](CCCCN)NC(=O)[C@H](CCCCN)NC(=O)[C@@H]3CSSC[C@@H](C(=O)N[C@H](C(=O)N4CCC[C@H]4C(=O)N[C@@H](CCCCN)C(=O)O)[C@@H](C)O)NC(=O)[C@H](Cc4c[nH]cn4)NC(=O)[C@H](CSSC[C@H](NC(=O)[C@H](CCC(N)=O)NC(=O)[C@H](CCCNC(=N)N)NC(=O)[C@H](CO)NC1=O)C(=O)N[C@@H](CC(C)C)C(=O)N[C@@H](CCC(=O)O)C(=O)N1CCC[C@H]1C(=O)N3)NC(=O)[C@H](CCCCN)NC(=O)CNC(=O)[C@H](CC(N)=O)NC(=O)[C@H](CCSC)NC2=O [N5R] (H-GVIIRVKCKISRQCLEPCKKAGMRFGKCMNGKCHCTPK-OH; disulfide 8-28, 14-33, 18-35)	0.0136	0.00215
CC[C@H](C)[C@@H]1NC(=O)[C@H](CCCCN)NC(=O)[C@@H](NC(=O)[C@H](CCCNC(=N)N)NC(=O)[C@@H](NC(=O)[C@H](CC(N)=O)NC(=O)[C@@H](NC(=O)[C@@H](NC(=O)[C@@H](NC(=O)CN)C(C)C)[C@@H](C)CC)[C@@H](C)CC)C(C)C)CSSC[C@@H]2NC(=O)[C@H](CCCCN)NC(=O)CNC(=O)[C@H](Cc3ccccc3)NC(=O)[C@H](CCCNC(=N)N)NC(=O)[C@H](CCSC)NC(=O)CNC(=O)[C@H](C)NC(=O)[C@H](CCCCN)NC(=O)[C@H](CCCCN)NC(=O)[C@@H]3CSSC[C@@H](C(=O)N[C@H](C(=O)N4CCC[C@H]4C(=O)N[C@@H](CCCCN)C(=O)O)[C@@H](C)O)NC(=O)[C@H](Cc4c[nH]cn4)NC(=O)[C@H](CSSC[C@H](NC(=O)[C@H](CCC(N)=O)NC(=O)[C@H](CCCNC(=N)N)NC(=O)[C@H](CO)NC1=O)C(=O)N[C@@H](CC(C)C)C(=O)N[C@@H](CCC(=O)O)C(=O)N1CCC[C@H]1C(=O)N3)NC(=O)[C@H](CCCCN)NC(=O)CNC(=O)[C@H](CC(N)=O)NC(=O)[C@H](CCSC)NC2=O [K7R] (H-GVIINVRCKISRQCLEPCKKAGMRFGKCMNGKCHCTPK-OH; disulfide 8-28, 14-33, 18-35)	0.0132	< 0.00152
